Test results published in ChEMBL document CHEMBL6087456 (J Med Chem, 2025).
In brackets after ≈: the same amount, converted by molar mass.

What was measured:
Plasmodium falciparum [1] = assay: Antiparasitic activity against Plasmodium falciparum 3D7 assessed as parasitic reduction ratio at 10 times EC50 pretreated for 120 hrs followed by compound removal and replacement of media without compound measured after 28 days by cell killing assay; format: functional
Plasmodium falciparum [2] = assay: Antiparasitic activity against asexual blood stage Plasmodium falciparum 3D7 incubated for 72 hrs by SYBR Green assay; format: functional, organism-based; settings: 3D7, 72 h
[3] = Kinetic solubility of compound at pH 6.5 measured after 30 mins by nephelometry; format: physicochemical; settings: buffer, pH 6.5, read-out: Kinetic_solubility
Cytochrome P450 2C8 = target: T1, Cytochrome P450 2C8 (Homo sapiens, UniProt P10632); assay: Inhibition of CYP2C8 in human liver microsomes; format: ADME, Microsome
T1 sequence (P10632 whole entry): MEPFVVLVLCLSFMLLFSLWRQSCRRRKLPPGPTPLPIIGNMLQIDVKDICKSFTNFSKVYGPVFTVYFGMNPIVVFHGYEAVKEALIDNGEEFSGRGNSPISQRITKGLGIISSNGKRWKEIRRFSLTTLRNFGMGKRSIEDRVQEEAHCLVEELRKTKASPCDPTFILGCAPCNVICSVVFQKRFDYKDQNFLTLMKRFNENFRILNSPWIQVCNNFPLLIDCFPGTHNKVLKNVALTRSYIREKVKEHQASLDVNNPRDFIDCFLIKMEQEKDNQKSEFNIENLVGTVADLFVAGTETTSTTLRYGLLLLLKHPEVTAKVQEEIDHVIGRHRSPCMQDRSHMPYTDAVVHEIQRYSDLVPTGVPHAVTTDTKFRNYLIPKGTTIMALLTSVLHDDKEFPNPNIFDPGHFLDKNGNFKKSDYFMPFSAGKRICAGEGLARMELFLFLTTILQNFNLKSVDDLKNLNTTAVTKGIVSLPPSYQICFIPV

[4] = Cytotoxicity against human HepG2 cells by Cell Titer Glo assay; format: toxicity, cell-based
[5] = Plasma protein binding in rat measured for 6 hrs by rapid equilibrium dialysis; format: ADME, cell-free
[6] = Drug excretion in Sprague-Dawley rat urine at 1 mg/kg, iv; format: ADME, organism-based; settings: read-out: Drug excretion
[7] = Cytotoxicity against human Jurkat cells by Cell Titer Glo assay; format: toxicity, cell-based
Cytochrome P450 2D6 = Cytochrome P450 2D6 (Homo sapiens, UniProt P10635); assay: Inhibition of CYP2D6 in human liver microsomes; format: ADME, Microsome
Sequence of Cytochrome P450 2D6 (P10635 whole entry): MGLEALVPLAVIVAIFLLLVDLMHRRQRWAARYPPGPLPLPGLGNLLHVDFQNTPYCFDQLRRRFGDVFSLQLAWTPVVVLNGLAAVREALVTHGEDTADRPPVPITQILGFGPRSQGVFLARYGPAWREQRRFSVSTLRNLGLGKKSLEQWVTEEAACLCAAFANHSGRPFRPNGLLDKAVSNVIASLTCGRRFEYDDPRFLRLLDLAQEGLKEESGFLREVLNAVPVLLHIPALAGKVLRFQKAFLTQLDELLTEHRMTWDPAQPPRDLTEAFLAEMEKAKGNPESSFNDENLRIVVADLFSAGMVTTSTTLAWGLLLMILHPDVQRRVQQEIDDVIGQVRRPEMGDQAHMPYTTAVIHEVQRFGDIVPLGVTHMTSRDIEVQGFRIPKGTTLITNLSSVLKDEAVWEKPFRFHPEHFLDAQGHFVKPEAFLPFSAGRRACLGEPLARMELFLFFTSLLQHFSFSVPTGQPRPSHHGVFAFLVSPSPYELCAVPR

[8] = Half life in overnight-fasted male Sprague-Dawley rat at 3 mg/kg, po or 1 mg/kg, iv measured upto 72 hrs by LCMS analysis; format: ADME, organism-based; settings: in vivo
Cytochrome P450 2B6 = target: T2, Cytochrome P450 2B6 (Homo sapiens, UniProt P20813); assay: Inhibition of CYP2B6 in human liver microsomes; format: ADME, Microsome
T2 sequence (P20813 whole entry): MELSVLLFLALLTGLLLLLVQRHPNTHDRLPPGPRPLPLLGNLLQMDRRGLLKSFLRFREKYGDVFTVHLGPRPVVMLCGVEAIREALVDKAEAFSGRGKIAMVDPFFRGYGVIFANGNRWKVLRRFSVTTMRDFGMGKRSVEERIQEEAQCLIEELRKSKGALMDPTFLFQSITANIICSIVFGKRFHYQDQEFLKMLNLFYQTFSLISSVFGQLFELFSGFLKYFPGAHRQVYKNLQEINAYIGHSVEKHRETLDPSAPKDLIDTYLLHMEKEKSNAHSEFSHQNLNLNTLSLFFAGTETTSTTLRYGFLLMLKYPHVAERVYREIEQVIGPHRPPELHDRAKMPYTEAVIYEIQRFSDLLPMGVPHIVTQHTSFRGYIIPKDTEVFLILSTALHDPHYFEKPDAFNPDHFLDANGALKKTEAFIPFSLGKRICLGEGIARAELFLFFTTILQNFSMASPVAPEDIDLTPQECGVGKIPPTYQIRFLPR

[9] = Oral bioavailability in overnight-fasted male Sprague-Dawley rat at 3 mg/kg measured upto 72 hrs by LCMS analysis; format: ADME, organism-based; settings: in vivo
[10] = Metabolic stability in human liver microsomes assessed as intrinsic clearance at 0.5 uM incubated for 60 mins in presence of NADPH by tandem quadrupole-Time of Flight MS; format: ADME, Microsome; settings: 1 h
Cytochrome P450 3A4 = Cytochrome P450 3A4 (Homo sapiens, UniProt P08684); assay: Inhibition of CYP3A4 in human liver microsomes; format: ADME, Microsome
Sequence of Cytochrome P450 3A4 (P08684 whole entry): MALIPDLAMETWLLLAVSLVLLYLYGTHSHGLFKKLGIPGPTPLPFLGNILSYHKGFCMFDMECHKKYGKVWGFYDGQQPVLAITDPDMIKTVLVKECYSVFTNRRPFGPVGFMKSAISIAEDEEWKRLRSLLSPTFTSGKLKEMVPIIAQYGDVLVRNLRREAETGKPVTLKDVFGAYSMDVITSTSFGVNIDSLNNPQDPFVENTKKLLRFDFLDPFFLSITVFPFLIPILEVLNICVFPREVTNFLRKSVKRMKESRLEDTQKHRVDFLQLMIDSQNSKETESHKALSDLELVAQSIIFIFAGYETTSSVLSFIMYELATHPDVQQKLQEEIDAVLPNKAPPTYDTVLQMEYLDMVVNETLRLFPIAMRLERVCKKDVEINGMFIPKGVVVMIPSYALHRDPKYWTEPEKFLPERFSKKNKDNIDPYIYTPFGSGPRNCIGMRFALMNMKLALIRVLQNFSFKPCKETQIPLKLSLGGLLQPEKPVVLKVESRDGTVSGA

Albumin = Albumin (Homo sapiens, UniProt P02768); assay: Protein binding to albumin (unknown origin) in ALBUMAX medium; format: ADME; settings: read-out: PB (converted)
Sequence of Albumin (P02768 whole entry): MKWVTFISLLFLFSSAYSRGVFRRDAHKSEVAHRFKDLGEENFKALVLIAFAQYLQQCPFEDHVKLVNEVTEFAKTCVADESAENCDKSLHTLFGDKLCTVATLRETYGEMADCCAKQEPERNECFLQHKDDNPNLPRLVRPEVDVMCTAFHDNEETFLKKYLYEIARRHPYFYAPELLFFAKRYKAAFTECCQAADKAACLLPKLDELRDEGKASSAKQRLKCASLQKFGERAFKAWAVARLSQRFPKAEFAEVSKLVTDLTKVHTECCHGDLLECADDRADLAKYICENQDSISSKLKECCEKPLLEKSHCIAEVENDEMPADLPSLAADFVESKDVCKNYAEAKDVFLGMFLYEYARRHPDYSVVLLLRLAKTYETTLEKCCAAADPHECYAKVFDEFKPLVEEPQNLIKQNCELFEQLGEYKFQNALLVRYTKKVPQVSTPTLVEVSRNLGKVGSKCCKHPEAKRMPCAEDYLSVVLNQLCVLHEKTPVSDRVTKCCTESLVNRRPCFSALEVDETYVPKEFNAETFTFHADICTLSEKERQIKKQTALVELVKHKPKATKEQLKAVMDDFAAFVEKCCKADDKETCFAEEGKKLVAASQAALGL

Plasmodium falciparum [11] = assay: Antiparasitic activity against Plasmodium falciparum 3D7 assessed as lag time before killing at 10 times EC50 pretreated for 120 hrs followed by compound removal and replacement of media without compound measured after 28 days by cell killing assay; format: functional
[12] = Protein binding in human hepatocytes; format: ADME, cell-based, Hepatocyte; settings: read-out: PB (converted)
[13] = Plasma protein binding in human measured for 6 hrs by rapid equilibrium dialysis; format: ADME, cell-free
Cytochrome P450 1A2 = target: T3, Cytochrome P450 1A2 (Homo sapiens, UniProt P05177); assay: Inhibition of CYP1A2 in human liver microsomes; format: ADME, Microsome
T3 sequence (P05177 whole entry): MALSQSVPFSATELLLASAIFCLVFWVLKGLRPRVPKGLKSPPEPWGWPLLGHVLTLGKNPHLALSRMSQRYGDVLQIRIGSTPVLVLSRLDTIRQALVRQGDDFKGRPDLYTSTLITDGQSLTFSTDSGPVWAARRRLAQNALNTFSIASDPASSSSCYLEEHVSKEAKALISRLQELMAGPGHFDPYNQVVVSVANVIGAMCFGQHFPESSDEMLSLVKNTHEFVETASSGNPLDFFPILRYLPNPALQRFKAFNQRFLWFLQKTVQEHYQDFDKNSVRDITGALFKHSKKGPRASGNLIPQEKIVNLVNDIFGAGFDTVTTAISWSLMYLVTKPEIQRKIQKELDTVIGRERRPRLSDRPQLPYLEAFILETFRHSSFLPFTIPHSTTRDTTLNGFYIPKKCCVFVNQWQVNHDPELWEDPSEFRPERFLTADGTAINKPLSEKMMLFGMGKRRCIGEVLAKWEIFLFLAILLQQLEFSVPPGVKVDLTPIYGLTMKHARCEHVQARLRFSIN

[14] = Oral absorption in overnight-fasted male Sprague-Dawley rat at 3 mg/kg measured upto 72 hrs by LCMS analysis; format: ADME, organism-based; settings: in vivo
[15] = target: T4, Dihydroorotate dehydrogenase (quinone), mitochondrial (Plasmodium falciparum (isolate 3D7), UniProt Q08210); assay: Inhibition of N-terminal His6-tagged recombinant Plasmodium falciparum DHODH (158 to 569 residues) N-terminally truncated soluble domain extracted from Escherichia coli phage resistant BL21-DE3 using CoQD/DHA/DCIP as substrates
T4 sequence (Q08210 whole entry): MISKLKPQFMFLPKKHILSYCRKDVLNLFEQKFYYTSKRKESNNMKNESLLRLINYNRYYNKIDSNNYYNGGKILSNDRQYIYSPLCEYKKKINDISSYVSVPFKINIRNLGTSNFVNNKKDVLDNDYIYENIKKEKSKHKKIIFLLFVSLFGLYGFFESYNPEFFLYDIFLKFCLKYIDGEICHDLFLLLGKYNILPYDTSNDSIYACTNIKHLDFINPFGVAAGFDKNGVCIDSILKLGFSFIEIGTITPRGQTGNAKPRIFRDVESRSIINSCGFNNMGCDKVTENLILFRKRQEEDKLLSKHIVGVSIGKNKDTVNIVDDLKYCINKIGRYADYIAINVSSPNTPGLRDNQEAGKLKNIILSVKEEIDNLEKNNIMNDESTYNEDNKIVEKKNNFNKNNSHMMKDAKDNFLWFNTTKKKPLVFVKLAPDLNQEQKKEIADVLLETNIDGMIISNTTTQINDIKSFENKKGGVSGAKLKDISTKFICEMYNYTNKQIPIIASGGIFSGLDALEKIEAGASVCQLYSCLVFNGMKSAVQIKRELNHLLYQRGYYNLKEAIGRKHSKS

[16] = Partition coefficient, log D of compound at pH 7.4 measured after 24 hrs by LCMS analysis; format: physicochemical; settings: octanol/water, pH 7.4, 24 h
[17] = target: Dihydroorotate dehydrogenase (quinone), mitochondrial (Homo sapiens, UniProt Q02127); assay: Inhibition of C-terminal His6-tagged recombinant human DHODH (29 to 395 residues) N-terminally truncated soluble domain extracted from Escherichia coli phage resistant BL21-DE3 using CoQD/DHA/DCIP as substrates
Sequence of Dihydroorotate dehydrogenase (quinone), mitochondrial (Homo sapiens, UniProt Q02127) (Q02127 whole entry, the tested form may be a part): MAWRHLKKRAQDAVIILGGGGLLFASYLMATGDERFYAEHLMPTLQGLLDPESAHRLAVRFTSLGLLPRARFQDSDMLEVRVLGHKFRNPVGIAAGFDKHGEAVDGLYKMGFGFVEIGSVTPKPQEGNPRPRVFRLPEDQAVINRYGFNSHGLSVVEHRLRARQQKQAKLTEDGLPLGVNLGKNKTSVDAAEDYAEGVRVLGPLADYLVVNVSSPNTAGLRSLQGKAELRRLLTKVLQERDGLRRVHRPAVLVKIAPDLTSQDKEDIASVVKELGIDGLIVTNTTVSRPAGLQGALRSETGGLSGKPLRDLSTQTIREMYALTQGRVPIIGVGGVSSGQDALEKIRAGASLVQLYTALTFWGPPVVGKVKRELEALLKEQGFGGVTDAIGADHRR

[18] = Half life in human; format: ADME
[19] = Volume of distribution at steady state in overnight-fasted male Sprague-Dawley rat at 3 mg/kg, po or 1 mg/kg, iv measured upto 72 hrs by LCMS analysis; format: ADME, organism-based; settings: in vivo

SMILES | log(activity) (Plasmodium falciparum [1]) | EC50 (Plasmodium falciparum [2]) | solubility kinetic at 0.5 h [3] | CC50 [4] | dose excreted [6] | CC50 [7] | IC50 (Cytochrome P450 2D6) | IC50 (Cytochrome P450 2B6) | F [9] | intrinsic clearance (CLint) [10] | IC50 (Cytochrome P450 3A4) | fraction unbound (Albumin) | fraction unbound [12] | IC50 (Cytochrome P450 1A2) | Fa at 72 h [14] | IC50 [15] | IC50 [17] | further results
CCc1nc(N)nc(N)c1-c1ccc(Cl)cc1 [PYRIMETHAMINE] | 3.5 | – | – | – | – | – | – | – | – | – | – | – | – | – | – | – | – | –
Cn1nc2c(=O)n(C3CC3)ncc2c1[C@](N)(c1ccc(C(F)(F)F)c(Cl)c1)C1CC1 | 3.1 | 0.007 µM | 12.5 µM (≈ 5.47 µg/mL) | > 20 µM | < 1% | > 20 µM | > 20 µM | > 20 µM | 79% | < 3 µL/min/mg | > 20 µM | 0.239 | 0.335 | > 20 µM | 81% | – | – | IC50 (Cytochrome P450 2C8): 7 µM; PPB [5]: 86%; t1/2 [8]: 17 h; Time (Plasmodium falciparum [11]): ~26 h; PPB [13]: 90.8%
CC[C@@](N)(c1cnc(C(F)(F)F)c(Cl)c1)c1c2ncn(C3CC3)c(=O)c2nn1C | – | 0.007 µM | 80 µM (≈ 34.1 µg/mL) | > 20 µM | < 1% | > 20 µM | > 20 µM | > 20 µM | 79% | < 3 µL/min/mg | > 20 µM | 0.703 | 0.589 | > 20 µM | 64% | 0.038 µM | > 30 µM | logD [16]: 3.44
Cc1c(C2(c3ccc(C(F)(F)F)nc3)CC2)c[nH]c1C(=O)N[C@H](C)c1nc[nH]n1 | – | – | – | – | – | – | – | – | – | – | – | – | – | – | – | – | – | half-life [18]: > 100 h
CCn1cc(C)c2c([C@H](O)c3ccc(C(F)(F)F)nc3)n(C)nc2c1=O | – | 0.022 µM | 160 µM (≈ 58.6 µg/mL) | – | – | – | – | – | – | < 3 µL/min/mg | – | – | – | – | – | 0.074 µM | > 100 µM | Vdss [19]: 2.76 L/kg
